Laboratory results as given in patent publication US20190369111A1, “MOLECULAR KINETICS EVALUATION METHOD AND SCREENING METHOD” (Tokyo University of Science Foundation, priority 2016, published 2019).

Target: T1, wild-type K-Ras protein (Homo sapiens, UniProt P01116)
T1 construct: expressed in transfected cells; host or cells: HeLa cells, transient transfection
Assay: Degradation (knockdown) of forcibly expressed wild-type K-Ras protein in HeLa cells, Western blot analysis
Assay type: cell-based
Experimental: A plasmid expressing the wild-type K-Ras protein (K-Ras-WT) was prepared, as in Reference Example 1.
As in Reference Example 1, the plasmid was introduced into HeLa cells to transiently overexpress the wild-type K-Ras protein (specifically, a fusion protein of the wild-type K-Ras protein and GFP through a HA tag) or a DsRed protein for comparison in the cells. HeLa cells into which the plasmid had been introduced were seeded in a 24-well plate at a cell density of 4×10^4 cells/well, and then cultured under conditions of 37° C. and 5 vol % CO2 for 40 hours.
Culture was performed for 40 hours after introduction of the plasmid, and then TUS-007 was added to HeLa cells as follows. As a medium, a serum-free medium (37° C.) in which 1 mass % L-glutamine solution (Sigma-Aldrich) was added to D-MEM (high D-glucose, phenol red, sodium pyruvate (Wako Pure Chemical Industries, Ltd.)) was used. […]
After electrophoresis, proteins were transferred to a PVDF membrane (Immobion™-P, Millipore) under conditions of 100 V and 120 minutes using a tank-type blotting device and a transfer buffer (25 mM Tris-HCl, 195 mM glycine, 0.01% SDS, 15% methanol). […] Subsequently, the membrane was treated with a chemiluminescence reagent Immobilon™ Western (Millipore), and then chemiluminescence was detected using a lumino image analyzer LAS-3000 (FUJIFILM Corporation). […]

T1 sequence (P01116 1-188 isoform P01116-2): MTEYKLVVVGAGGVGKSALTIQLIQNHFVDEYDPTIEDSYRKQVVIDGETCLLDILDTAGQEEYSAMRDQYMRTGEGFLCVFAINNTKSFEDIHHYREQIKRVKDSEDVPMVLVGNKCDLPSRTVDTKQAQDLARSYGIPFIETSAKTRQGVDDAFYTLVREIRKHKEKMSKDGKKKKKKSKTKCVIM

For `CC[C@@H](C)[C@H](NC(=O)CCCCCCNC(=O)[C@H](CC(C)C)NC(=O)CNC(=O)c1cc(Cl)ccc1Cl)C(=O)Nc1ccc2[nH]c(Cc3c[nH]c4ccccc34)nc2c1` [TUS-007], the “amount of wild-type K-Ras protein” value (24 hours after addition, relative to control (DMSO)) was “the amount of the wild-type K-Ras protein was reduced” and the “amount of wild-type K-Ras protein when MLN2238 is added together” value (both TUS-007 and MLN2238 added) was “the amount of the wild-type K-Ras protein was increased as compared with the amount of the control (DMSO)”.
